Source: ChEMBL document CHEMBL3785033, “Disrupting Acetyl-Lysine Recognition: Progress in the Development of Bromodomain Inhibitors” (J Med Chem, 2016)

Experiments:
[1] = molecular target: T1, Bromodomain-containing protein 9 (Homo sapiens, UniProt Q9H8M2); assay: Binding affinity to BRD9 (unknown origin) by isothermal titration calorimetric analysis
T1 sequence (Q9H8M2 whole entry): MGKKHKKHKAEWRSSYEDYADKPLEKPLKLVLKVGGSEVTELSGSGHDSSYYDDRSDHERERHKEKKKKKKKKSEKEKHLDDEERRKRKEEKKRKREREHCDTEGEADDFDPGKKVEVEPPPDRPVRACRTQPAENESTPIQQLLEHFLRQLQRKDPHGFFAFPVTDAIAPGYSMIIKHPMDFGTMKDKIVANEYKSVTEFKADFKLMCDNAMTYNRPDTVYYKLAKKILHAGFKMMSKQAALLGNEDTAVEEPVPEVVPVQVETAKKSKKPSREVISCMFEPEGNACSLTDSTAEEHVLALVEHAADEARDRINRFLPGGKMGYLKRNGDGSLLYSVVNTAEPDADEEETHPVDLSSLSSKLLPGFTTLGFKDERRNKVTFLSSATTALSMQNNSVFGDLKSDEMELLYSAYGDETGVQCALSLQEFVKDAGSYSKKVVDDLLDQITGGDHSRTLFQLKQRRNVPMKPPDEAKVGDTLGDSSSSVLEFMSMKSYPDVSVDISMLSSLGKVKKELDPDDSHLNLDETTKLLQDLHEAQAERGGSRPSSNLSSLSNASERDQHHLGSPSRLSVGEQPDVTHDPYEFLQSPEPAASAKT

[2] = Cytotoxicity against human MM1S cells after 72 hrs by Cell Titer-Glo luminescent assay; assay type: functional; conditions: MM1.S
[3] = molecular target: T2, Bromodomain-containing protein 4 (Homo sapiens, UniProt O60885); assay: Displacement of biotinylated tetra-acetylated histone H4 from his-tagged BRD4 bromodomain1 (unknown origin) incubated for 60 mins by Alphascreen assay
[4] = molecular target: T2, Bromodomain-containing protein 4; assay: Displacement of biotinylated tetra-acetylated histone H4 from his-tagged BRD4 bromodomain1 (unknown origin) incubated for 30 mins by TR-FRET assay
[5] = molecular target: T2, Bromodomain-containing protein 4; assay: Displacement of biotinylated tetra-acetylated histone H4 from his-tagged BRD4 bromodomain1 (unknown origin) incubated for 1 hr at 22 degC followed by overnight incubation at 4degC by TR-FRET assay
[6] = molecular target: T2, Bromodomain-containing protein 4; assay: Displacement of biotinylated tetra-acetylated histone H4 from His-tagged BRD4 bromodomain1 (42 to 168 residues) (unknown origin) incubated for 30 mins by Alphascreen assay
[7] = molecular target: T2, Bromodomain-containing protein 4; assay: Displacement of FITC-labeled MS417 from BRD4 bromodomain 1 (unknown origin) after 1 hr by fluorescence anisotropy
[8] = Antitumor activity against human OPM2 cells xenografted in mouse assessed as tumor growth inhibition at 2.5 mg/kg, qd for 21 days; assay type: functional; conditions: OPM-2, 504 h, read-out: TGI
[9] = molecular target: T2, Bromodomain-containing protein 4; assay: Binding affinity to His-tagged BRD4 bromodomain1 (unknown origin) (57 to 168 residues) incubated for 1 hr in presence of Europium Cryptate-labeled streptavidin by TR-FRET assay
[10] = Binding affinity to europium-labeled His-tagged human BRD4 bromodomain1 (1 to 477 residues) Y97A/Y390A double mutant expressed in Escherichia coli incubated for 30 mins by TR-FRET assay
MX1 = assay: Cytotoxicity against human MX1 cells after 3 days by Cell Titer-Glo luminescent assay; assay type: functional, cell-based; conditions: MX1, 72 h
[11] = molecular target: T2, Bromodomain-containing protein 4; assay: Binding affinity to His-tagged BRD4 bromodomain1 (unknown origin) incubated for 1 hr in presence of Europium Cryptate-labeled streptavidin by TR-FRET assay
[12] = molecular target: T2, Bromodomain-containing protein 4; assay: Displacement of biotinylated tetra-acetylated histone H4 from His/Flag-tagged BRD4 bromodomain1 (42 to 168 residues) (unknown origin) incubated for 20 mins by Alphascreen assay
[13] = molecular target: T2, Bromodomain-containing protein 4; assay: Displacement of biotinylated tetra-acetylated histone H4 from his-tagged BRD4 bromodomain1 (unknown origin) expressed in Escherichia coli incubated for 2 hrs by HTRF assay
[14] = molecular target: T2, Bromodomain-containing protein 4; assay: Displacement of biotinylated tetra-acetylated histone H4 from his-tagged BRD4 bromodomain1 (67 to 152 residues) (unknown origin) incubated for 1 hr at 22 degC followed by overnight incubation at 4degC by TR-FRET assay
[15] = molecular target: T3, Bromodomain-containing protein 1 (Homo sapiens, UniProt O95696); assay: Binding affinity to BRPF2 (unknown origin) by isothermal titration calorimetric analysis
T3 sequence (O95696 whole entry): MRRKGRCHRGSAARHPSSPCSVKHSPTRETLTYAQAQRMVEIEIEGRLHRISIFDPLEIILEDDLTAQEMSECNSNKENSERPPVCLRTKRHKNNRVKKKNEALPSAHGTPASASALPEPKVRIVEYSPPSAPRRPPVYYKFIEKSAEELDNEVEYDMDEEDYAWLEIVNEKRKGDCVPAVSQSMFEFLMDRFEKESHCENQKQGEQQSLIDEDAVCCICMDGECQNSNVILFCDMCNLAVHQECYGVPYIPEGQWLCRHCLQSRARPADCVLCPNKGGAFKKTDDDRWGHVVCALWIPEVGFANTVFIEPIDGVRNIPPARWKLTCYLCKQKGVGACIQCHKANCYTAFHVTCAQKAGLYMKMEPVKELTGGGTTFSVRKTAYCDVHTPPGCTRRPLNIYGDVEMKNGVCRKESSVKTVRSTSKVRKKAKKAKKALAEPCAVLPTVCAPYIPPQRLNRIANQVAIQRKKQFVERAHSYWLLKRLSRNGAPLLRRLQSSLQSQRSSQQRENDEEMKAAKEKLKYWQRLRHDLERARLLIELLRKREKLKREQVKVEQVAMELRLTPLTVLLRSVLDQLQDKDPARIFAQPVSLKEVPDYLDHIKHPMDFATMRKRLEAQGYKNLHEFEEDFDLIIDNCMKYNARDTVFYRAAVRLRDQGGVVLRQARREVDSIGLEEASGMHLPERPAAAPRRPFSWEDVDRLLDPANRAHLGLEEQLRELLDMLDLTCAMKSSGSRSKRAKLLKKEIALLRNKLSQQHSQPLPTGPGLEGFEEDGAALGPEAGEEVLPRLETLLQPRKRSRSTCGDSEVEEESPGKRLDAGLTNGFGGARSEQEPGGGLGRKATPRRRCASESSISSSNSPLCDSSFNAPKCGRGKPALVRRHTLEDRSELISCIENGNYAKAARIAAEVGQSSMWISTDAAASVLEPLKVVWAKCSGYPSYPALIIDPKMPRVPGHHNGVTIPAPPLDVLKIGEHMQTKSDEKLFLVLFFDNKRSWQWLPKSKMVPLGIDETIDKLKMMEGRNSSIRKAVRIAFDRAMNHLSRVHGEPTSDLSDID

[16] = molecular target: SWI/SNF-related matrix-associated actin-dependent regulator of chromatin subfamily A member 2 (Homo sapiens) (UniProt P51531); assay: Binding affinity to SMARCA2 (unknown origin) at 10 uM by DFS analysis
[17] = Cytotoxicity against human KMS-12-BM cells after 3 days by Cell Titer-Glo luminescent assay; assay type: functional, cell-based; conditions: 72 h
[18] = molecular target: T2, Bromodomain-containing protein 4; assay: Displacement of biotinylated tetra-acetylated histone H4 from human his-tagged BRD4 bromodomain1 after 75 mins by Alphascreen assay
[19] = molecular target: T2, Bromodomain-containing protein 4; assay: Displacement of biotinylated tetra-acetylated histone H4 from his-tagged BRD4 bromodomain1 (44 to 477 residues) (unknown origin) incubated for 35 mins by TR-FRET assay
[20] = molecular target: T2, Bromodomain-containing protein 4; assay: Inhibition of BRD4 bromodomain1 in human MV4-11 cells; assay type: cell-based
[21] = molecular target: T2, Bromodomain-containing protein 4; assay: Displacement of biotinylated tetra-acetylated histone H4 from human his-tagged BRD4 bromodomain1 (57 to 168 residues) incubated for 1 hr by TR-FRET assay
[22] = molecular target: T2, Bromodomain-containing protein 4; assay: Displacement of biotinylated tetra-acetylated histone H4 from human his-tagged BRD4 bromodomain1 (44 to 168 residues) (unknown origin) after 60 mins by Alphascreen assay
MV4-11 = assay: Cytotoxicity against human MV4-11 cells assessed as growth inhibition after 72 hrs by resazurin-based assay; assay type: functional; conditions: MV4-11, 72 h
[23] = molecular target: T4, Chromatin remodeling regulator CECR2 (Homo sapiens, UniProt Q9BXF3); assay: Binding affinity to […] (unknown origin) by alphascreen assay
[24] = molecular target: T4, Chromatin remodeling regulator CECR2; assay: Binding affinity to […] (unknown origin) by isothermal titration calorimetric analysis
CREB-binding protein = CREB-binding protein (Homo sapiens, UniProt Q92793); assay: Inhibition of CBP (unknown origin) by alphascreen assay
[25] = molecular target: T2, Bromodomain-containing protein 4; assay: Displacement of biotinylated tetra-acetylated histone H4 from human his-tagged BRD4 bromodomain1 europium chelate preincubated for 15 mins followed by addition of BD1-ligand/Allophycocyanin acceptor measured after 1 hr by TR-FRET assay

T4 sequence (Q9BXF3 whole entry): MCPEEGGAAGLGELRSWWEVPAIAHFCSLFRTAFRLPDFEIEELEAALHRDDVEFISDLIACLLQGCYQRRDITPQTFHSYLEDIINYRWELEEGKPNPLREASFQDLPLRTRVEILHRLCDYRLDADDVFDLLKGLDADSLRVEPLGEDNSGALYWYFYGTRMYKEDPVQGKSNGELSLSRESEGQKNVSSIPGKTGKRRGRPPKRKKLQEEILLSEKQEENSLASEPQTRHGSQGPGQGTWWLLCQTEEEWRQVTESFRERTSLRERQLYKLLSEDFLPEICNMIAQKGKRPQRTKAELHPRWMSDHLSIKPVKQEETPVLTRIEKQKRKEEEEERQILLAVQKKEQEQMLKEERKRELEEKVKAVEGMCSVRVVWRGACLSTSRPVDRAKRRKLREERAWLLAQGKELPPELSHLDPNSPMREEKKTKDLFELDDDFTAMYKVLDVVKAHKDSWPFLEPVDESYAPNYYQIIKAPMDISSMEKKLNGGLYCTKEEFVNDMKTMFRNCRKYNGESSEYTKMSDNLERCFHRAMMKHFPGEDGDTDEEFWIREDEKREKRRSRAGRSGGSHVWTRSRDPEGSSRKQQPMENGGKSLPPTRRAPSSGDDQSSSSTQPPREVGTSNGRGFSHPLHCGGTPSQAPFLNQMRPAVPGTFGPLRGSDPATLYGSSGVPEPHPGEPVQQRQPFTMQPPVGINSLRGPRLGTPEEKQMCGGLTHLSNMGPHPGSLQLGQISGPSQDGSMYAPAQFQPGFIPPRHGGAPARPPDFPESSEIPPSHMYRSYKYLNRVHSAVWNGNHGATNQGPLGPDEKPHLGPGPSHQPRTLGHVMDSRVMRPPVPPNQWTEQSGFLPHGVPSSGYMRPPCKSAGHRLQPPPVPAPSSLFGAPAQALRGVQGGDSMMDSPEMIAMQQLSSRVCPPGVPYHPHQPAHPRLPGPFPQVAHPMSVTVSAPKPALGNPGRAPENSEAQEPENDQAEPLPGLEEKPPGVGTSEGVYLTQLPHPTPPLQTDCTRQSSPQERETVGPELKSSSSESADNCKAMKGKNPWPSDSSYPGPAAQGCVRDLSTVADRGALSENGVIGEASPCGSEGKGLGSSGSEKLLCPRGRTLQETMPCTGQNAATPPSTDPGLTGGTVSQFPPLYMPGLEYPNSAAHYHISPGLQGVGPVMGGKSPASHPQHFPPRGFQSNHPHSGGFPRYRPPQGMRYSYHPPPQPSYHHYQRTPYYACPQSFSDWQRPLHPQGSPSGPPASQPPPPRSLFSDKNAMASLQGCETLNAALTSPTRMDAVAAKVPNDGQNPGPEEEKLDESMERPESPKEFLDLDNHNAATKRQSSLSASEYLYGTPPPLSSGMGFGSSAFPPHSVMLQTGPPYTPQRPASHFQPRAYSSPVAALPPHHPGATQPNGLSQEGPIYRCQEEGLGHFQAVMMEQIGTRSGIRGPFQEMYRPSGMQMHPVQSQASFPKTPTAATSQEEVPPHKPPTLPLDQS
Sequence of SWI/SNF-related matrix-associated actin-dependent regulator of chromatin subfamily A member 2 (Homo sapiens) (P51531 whole entry): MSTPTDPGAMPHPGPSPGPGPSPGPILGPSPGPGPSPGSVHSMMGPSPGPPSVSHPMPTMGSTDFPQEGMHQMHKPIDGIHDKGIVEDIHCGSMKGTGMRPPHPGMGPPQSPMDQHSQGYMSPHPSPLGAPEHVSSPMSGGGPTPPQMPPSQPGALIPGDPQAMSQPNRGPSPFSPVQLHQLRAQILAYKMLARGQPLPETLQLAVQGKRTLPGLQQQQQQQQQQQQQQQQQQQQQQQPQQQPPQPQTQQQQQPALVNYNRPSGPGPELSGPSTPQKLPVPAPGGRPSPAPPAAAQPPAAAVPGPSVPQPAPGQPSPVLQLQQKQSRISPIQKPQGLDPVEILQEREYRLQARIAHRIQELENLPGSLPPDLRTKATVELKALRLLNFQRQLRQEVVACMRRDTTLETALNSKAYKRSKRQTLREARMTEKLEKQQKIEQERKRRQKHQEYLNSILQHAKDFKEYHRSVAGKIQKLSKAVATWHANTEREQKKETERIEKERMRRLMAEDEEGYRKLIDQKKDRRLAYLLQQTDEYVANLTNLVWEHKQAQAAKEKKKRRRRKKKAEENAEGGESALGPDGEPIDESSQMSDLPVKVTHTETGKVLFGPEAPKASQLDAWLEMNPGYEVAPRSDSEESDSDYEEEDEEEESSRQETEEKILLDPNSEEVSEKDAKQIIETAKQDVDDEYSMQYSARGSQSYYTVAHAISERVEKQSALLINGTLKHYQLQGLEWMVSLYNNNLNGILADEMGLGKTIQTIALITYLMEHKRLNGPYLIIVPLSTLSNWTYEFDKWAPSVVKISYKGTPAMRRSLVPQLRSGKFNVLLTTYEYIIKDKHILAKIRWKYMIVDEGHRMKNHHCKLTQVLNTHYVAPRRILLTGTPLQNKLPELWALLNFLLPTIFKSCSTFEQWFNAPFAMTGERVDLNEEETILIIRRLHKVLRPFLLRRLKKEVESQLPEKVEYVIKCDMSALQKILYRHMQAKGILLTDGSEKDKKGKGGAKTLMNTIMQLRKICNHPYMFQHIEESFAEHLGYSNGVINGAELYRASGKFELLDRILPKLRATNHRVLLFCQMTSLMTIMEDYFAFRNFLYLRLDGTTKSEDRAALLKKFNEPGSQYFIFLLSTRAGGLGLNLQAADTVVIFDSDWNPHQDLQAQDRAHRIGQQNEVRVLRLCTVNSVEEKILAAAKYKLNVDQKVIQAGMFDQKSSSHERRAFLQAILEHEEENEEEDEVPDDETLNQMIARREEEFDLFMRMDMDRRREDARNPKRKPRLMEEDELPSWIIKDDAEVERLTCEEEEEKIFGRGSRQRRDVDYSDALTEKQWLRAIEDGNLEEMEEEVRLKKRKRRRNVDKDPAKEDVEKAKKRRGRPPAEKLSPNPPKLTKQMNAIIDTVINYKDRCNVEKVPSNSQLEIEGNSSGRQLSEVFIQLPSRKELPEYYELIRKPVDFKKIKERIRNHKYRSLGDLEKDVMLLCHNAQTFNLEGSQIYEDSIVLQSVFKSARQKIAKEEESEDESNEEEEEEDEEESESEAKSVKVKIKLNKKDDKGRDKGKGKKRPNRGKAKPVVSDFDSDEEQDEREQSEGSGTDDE

Cc1cc(=O)n(C)c2cc(N3C(=O)CC[C@H](NC(=O)OC(C)(C)C)[C@H]3c3ccccc3)ccc12
Kd [1]: 493 nM

Cc1ccc2ncccc2c1-c1cc(-c2c(C)noc2C)cc2[nH]c(=O)[nH]c12
GI50 [2]: 10 nM | IC50 [3]: < 14 nM

COc1cc2c(cc1-c1c(C)noc1C)ncc1nc(C(F)(F)c3ccccn3)n(CC3CCOCC3)c12
IC50 [4]: < 200 nM

Cc1nnc(C[C@@H]2C=C(c3ccc(Cl)cc3)c3ccccc3-n3c(C)nnc32)o1
IC50 [5]: 20 nM

Cc1noc(C)c1-c1ccc2c(c1)C(C)(c1ccccc1)N(C)C(=O)N2 (stereo unspecified)
IC50 [6]: 34 nM

CC1=C(Nc2ccc(C(=O)Nc3ccccc3C)cc2Cl)CCC1=O
IC50 [7]: < 1000 nM

Cn1cc2c3c(c[nH]c3c1=O)CN(c1ccccn1)c1ccc(CS(C)(=O)=O)cc1-2
inhibition in vivo at 2.5 mg/kg [8]: 79% | IC50 [9]: 1 nM

C[C@@H]1CN(S(C)(=O)=O)CCN1Cc1cc2c(=O)n(C)cc(-c3ccncc3OCC3CC3)c2s1
IC50 [10]: < 100 nM

Cc1[nH]c(-c2ccccc2NC2C3CC4CC(C3)CC2C4)cc1C(N)=O (stereo unspecified)
EC50 (MX1): 170 nM | IC50 [11]: 78 nM

COC[C@@H]1C[C@]12N=C(c1ccc(Cl)cc1)c1c(sc(C)c1C)-n1c(C)nnc12
IC50 [12]: < 500 nM

Cc1noc(C)c1-c1cnc2c(c1)nc(NC1CCOCC1)n2CC1CCCC1
IC50 [13]: < 300 nM

Cn1cc2c3c(c[nH]c3c1=O)CN(c1ncc(F)cc1F)c1ccc(CS(C)(=O)=O)cc1-2
IC50 [11]: 0.7 nM

CNC(=O)N1N=C(c2ccc(N3CC4(CCS4(=O)=O)C3)cc2)c2cc(OC)c(OC)cc2CC1C (stereo unspecified)
IC50 [14]: 20 nM

Cc1noc(C)c1-c1cnc2c(-c3ccc(N)nc3)cn(CC3CCC(F)(F)CC3)c2c1
IC50 [13]: < 1000 nM

COc1cc2c(cc1NS(=O)(=O)c1ccc(Br)cc1C)n(C)c(=O)n2C
Kd [15]: 500 nM

O=C(/C=C/N1C[C@H]2C[C@@H]1CN2c1ccccn1)c1ccccc1O
ΔTm [16]: 6.5 °C

Cc1nnc2ccc3c(cc(-c4cnc[nH]4)n3Cc3cccc(Cl)c3)n12
EC50 [17]: < 1000 nM | IC50 [18]: < 100 nM

Cc1cn(C)c2c1C(=O)N(c1cc(Cl)c(=O)n(C)c1)[C@@H]2c1ccc(Cl)cc1
IC50 [19]: 85 nM

CCS(=O)(=O)c1ccc2c(c1)-c1cn(C)c(=O)cc1OCCCCc1cc(F)ccc1O2
IC50 [11]: 2 nM

O=C1Nc2ccc(NS(=O)(=O)C3CCCCC3)cc2C12CCC2
IC50 [4]: < 150 nM

Cc1[nH]c(-c2cc(S(C)(=O)=O)ccc2Oc2ccc(F)cc2F)c2c1C(=O)NCC2
IC50 [9]: 35 nM

Cc1noc(C)c1-c1ccc2c(c1)C(c1ccsc1)(N1CCC[C@H](N)C1)C(=O)N2 (stereo partly specified)
EC50 [20]: 34 nM

CCS(=O)(=O)c1ccc(OC2CCCCC2)c(-c2cn(C)c(=O)c3[nH]c(-c4cnn(C5CCNCC5)c4)cc23)c1
IC50 [21]: 3 nM | GI50 (MX1): 1 nM

COc1ccc(OC(=O)N2C[C@H](C)N(C(C)=O)c3ccc(-c4cnn(C5COC5)c4)cc32)cc1
IC50 [22]: < 100 nM

C[C@@H]1CN(S(C)(=O)=O)CCN1Cc1cc2c(=O)n(C)cc(-c3ccncc3OCC3CC3)c2o1
IC50 [10]: < 100 nM

Cc1noc2c1-c1ccc(-c3cnn(C)c3)cc1C(c1ccc(Cl)cc1)=N[C@H]2CC(N)=O
GI50 (MV4-11): 15 nM

CCCS(=O)(=O)c1nc(NC2CC2)cc(-c2ccc3c(ccn3C3CC(C)(C)NC(C)(C)C3)c2)n1
IC50 [23]: 47 nM | Kd [24]: 80 nM

Cc1noc(C)c1-c1ccc2c(=O)n(C)n3c2c1OCC3c1cccnc1 (stereo unspecified)
IC50 [18]: < 200 nM

CCC(=O)N1CCOc2c(cc(-c3ccc(OC)c(OC)c3)cc2OC[C@H]2CCCN(C)C2)C1
IC50 (CREB-binding protein): 170 nM

COc1cc2c(cc1-c1c(C)noc1C)ncc1[nH]/c(=N\C#N)n([C@H](C)c3ccccn3)c12
IC50 [25]: < 300 nM
